Where two headings read alike, the source gives them in different places.
Columns and labels:
[1] = Hepatocyte intrinsic clearance assay; type: in vitro ADME, Human; details: pooled donor, cryopreserved hepatocytes, pH 7.4; human hepatocytes 1×10^6/mL; 0.05 μM; 2 h at 37° C.
Experimental: Test compounds (final concentration 0.05 μM, 0.05% organic) were incubated for 2 h at 37° C., with shaking, in supplemented Leibovitz L-15 media (pH 7.4) containing commercially sourced, pooled donor, cryopreserved hepatocytes (final concentration 1×10^6 hepatocytes/mL). The CLint reactions (350 μL) were initiated by addition of test compound. Aliquots (25 μL) were taken at 1, 5, 10, 15, 30, 60, 90 and 120 minutes and then protein crashed with ice-cold acetonitrile containing internal standard (150 μL) then centrifuged (1960 g for 20 minutes at 4° C.). Supernatant was diluted (1:4) with deionized water then analyzed by liquid chromatography (LC)-tandem mass spectrometry (MS/MS).

[2] = Rat brain disposition after oral gavage; type: in vivo, male Sprague-Dawley rats; details: male, Sprague-Dawley, oral 5 mg/kg, mean ± stdev
Experimental: Brain disposition was evaluated in male Sprague-Dawley rats (n=3, standard body weight). Briefly, test compound was formulated as a simple suspension (0.5% HPMC in water) then administered by oral gavage (10 mg/kg, 10 mL/kg or 5 mg/kg, 10 mL/kg). At the designated time point (0.5 or 1 h post dose) rats were sacrificed and terminal blood and brain samples taken. Isolated plasma and brain homogenates were extracted by standard protein precipitation in acetonitrile, containing internal standard. Diluted extracts were analyzed by liquid-chromatography coupled with tandem mass spectrometry detection (LC-MS/MS) using a bioanalytical method. Concentrations of test compound in plasma and brain were quantified against matrix matched calibration standards. The total plasma and brain concentration time data are presented in Table 4 alongside the calculated brain Kp (total brain concentration:total plasma concentration ratio).
The total brain-to-plasma partition coefficient (brain Kp) is given by the ratio of the total brain concentration and total plasma concentration of the compound according to the equation below: […]
Based on the measured rat fuplasma and fubrain values and the brain Kp the unbound brain-to-plasma partition coefficient (brain Kp,uu for each compound was calculated. The Kp,uu parameter describes the extent of brain penetration for each compound, i.e. the parameter gives a direct quantitative description of how the blood-brain barrier (BBB) handles the compounds regarding passive transport and active influx/efflux. The brain Kp,uu is given by the equation below: […]

[3] = Hepatic microsomal intrinsic clearance assay; type: in vitro ADME; details: liver microsomes 0.5 mg/mL, 1 μM, NADPH, 1 hour at 37° C., LLOQ 0.36 L/h/kg; for CLint scaled at 1 μM: pooled liver microsomes, pH 7.4
Experimental: Compounds (final concentration 1 μM, 1% organic) of the invention were incubated for 1 hour at 37° C., with shaking, in phosphate buffer (pH 7.4) containing commercially sourced pooled liver microsomes (final concentration 0.5 mg/mL). […] At designated time points (0, 5, 10, 20, 30 and 60 minutes) ice-cold acetonitrile containing internal standard (300 μL) was added to an incubation well to stop the reaction then mixed and centrifuged (3220 g for 20 minutes at 4° C.). Supernatant was diluted (1:4) with deionized water then analyzed by LC-MS/MS.

[4] = Fraction unbound in rat plasma and brain homogenate by equilibrium dialysis; type: in vitro ADME, male Sprague-Dawley rat; details: 1 μM, equilibrium dialysis 5 h at 37° C.; for fubrain (% free): rat brain homogenate; for fuplasma (% free): rat plasma
Experimental: The fraction of unbound compound in male Sprague-Dawley rat plasma (fuplasma) and brain homogenate (fubrain) were determined by equilibrium dialysis using 96-well HTD-dialysis plates with dialysis membranes (molecular weight cut off 12-14 KDa). One side of the HTD-dialysis plate was loaded with matrix (plasma or brain homogenate) and the other side with buffer (100 mM sodium phosphate buffer, pH 7.4). Test compounds were dissolved in DMSO then spiked (5 μL of 0.2 mM) into blank (995 μL) plasma or diluted brain homogenate (1:4 ratio in phosphate buffer) giving a final nominal concentration 1 μM (≤0.5% DMSO). The matrices were loaded into respective chambers and equilibrated against phosphate buffer for 5 h at 37° C. (in a humidified air incubator with 5% CO2 with shaking). Samples from both chambers (buffer and plasma or brain homogenate) were aliquoted to fresh 96-well polypropylene plates then matrix matched using an equal volume of opposite blank matrix before extraction with cold solvent (3 volumes acetonitrile) containing an appropriate bioanalytical internal standard. After centrifugation (20 min, 3200 g, 4° C.) the supernatants were diluted with appropriate volumes of water and compound concentrations were quantified by LC/MS-MS against matrix matched calibration standards. The fuplasma and fubrain were calculated according to equation 4 below.
[formula] Where [F] is the compound concentration on the buffer (receiver) side of the membrane; [T] is the compound concentration on the plasma or brain (donor) side of the membrane; D is the matrix dilution factor which is determined as D=4 for brain matrix and D=1 for plasma matrix in these assays.

[5] = brain, n=3, read-out: Total brain concentration
[6] = plasma, n=3, read-out: Total plasma concentration

| CLint scaled at 0.05 μM [1] | Kp at 0.5 h ([2]; brain, 0.5 h, n=3) | Kp uu at 0.5 h ([2]; brain, 0.5 h, n=3) | concentration at 0.5 h ([2]; brain, 0.5 h, n=3, read-out: Total brain concentration) | concentration at 0.5 h ([2]; plasma, 0.5 h, n=3, read-out: Total plasma concentration) | CLint scaled at 1 μM [3] | fubrain (% free) [4] | fuplasma (% free) [4] | Kp at 1 h ([2]; brain, n=3) | Kp uu at 1 h ([2]; brain, n=3) | concentration at 1 h [2, 5] | concentration at 1 h [2, 6] | Hepatic microsomal CLint (L/h/kg) [3] | SMILES |
| --- | --- | --- | --- | --- | --- | --- | --- | --- | --- | --- | --- | --- | --- |
| 6 mL/min/kg | 1.1 ± 0.1 | 0.52 ± 0.06 | 414 ± 97 ng/g | 362 ± 38 ng/mL | 7.17 mL/min/kg | 10.4 % free | 22.6 % free | – | – | – | – | – | Cc1ncccc1-n1nc2c(c1C)Nc1ncc3c(Cl)nn(c3n1)CCCO2 [Example 3, 8-Chloro-3-methyl-2-(2-methylpyridin-3-yl)-2,4,12,13-tetrahydro-11H-5,7-(azenometheno)dipyrazolo[3,4-b:5′,1′-g][1]oxa[4,6,8]triazacycloundecine] |
| 5.5 mL/min/kg | – | – | – | – | 20 mL/min/kg | 9.3 % free | 22.7 % free | 2.2 ± 0.3 | 0.89 ± 0.14 | 524 ± 79 ng/g | 246 ± 61 ng/mL | – | Cc1ncc(F)cc1-n1nc2c(c1C)Nc1ncc3c(Cl)nn(c3n1)CCCO2 [Example 10, 8-Chloro-2-(5-fluoro-2-methylpyridin-3-yl)-3-methyl-2,4,12,13-tetrahydro-11H-5,7-(azenometheno)dipyrazolo[3,4-b:5′,1′-g][1]oxa[4,6,8]triazacycloundecine] |
| < 4 mL/min/kg | – | – | – | – | 12.3 mL/min/kg | 5.3 % free | 11.7 % free | 1.1 ± 0.2 | 0.51 ± 0.07 | 649 ± 99 ng/g | 586 ± 82 ng/mL | – | Cc1cnc(C)c(-n2nc3c(c2C)Nc2ncc4c(Cl)nn(c4n2)CCCO3)c1 [Example 11, 8-Chloro-2-(2,5-dimethylpyridin-3-yl)-3-methyl-2,4,12,13-tetrahydro-11H-5,7-(azenometheno)dipyrazolo[3,4-b:5′,1′-g][1]oxa[4,6,8]triazacycloundecine] |
| 15.5 mL/min/kg | – | – | – | – | 21.3 mL/min/kg | – | – | – | – | – | – | – | [2H]C([2H])([2H])c1c2c(nn1-c1cc(F)cnc1OC)OCCCn1nc(Cl)c3cnc(nc31)N2 (single isomer, unassigned) [Example 29, 8-Chloro-2-(5-fluoro-2-methoxypyridin-3-yl)-3-(methyl-d3)-2,4,12,13-tetrahydro-11H-5,7-(azenometheno)dipyrazolo[3,4-b:5′,1′-g][1]oxa[4,6,8]triazacycloundecine] |
| 14.3 mL/min/kg | – | – | – | – | 21 mL/min/kg | 3.7 % free | 8.9 % free | 3 ± 0.06 | 1.22 ± 0.03 | 205 ± 21 ng/g | 69 ± 7 ng/mL | – | COc1ncc(F)cc1-n1nc2c(c1C)Nc1ncc3c(Cl)nn(c3n1)CCCO2 [Example 6, 8-Chloro-2-(5-fluoro-2-methoxypyridin-3-yl)-3-methyl-2,4,12,13-tetrahydro-11H-5,7-(azenometheno)dipyrazolo[3,4-b:5′,1′-g][1]oxa[4,6,8]triazacycloundecine] |
| 16.2 mL/min/kg | – | – | – | – | 23.8 mL/min/kg | – | – | – | – | – | – | – | [2H]C([2H])([2H])Oc1ncc(F)cc1-n1nc2c(c1C)Nc1ncc3c(Cl)nn(c3n1)CCCO2 (single isomer, unassigned) [Example 23, 8-Chloro-2-(5-fluoro-2-(methoxy-d3)pyridin-3-yl)-3-methyl-2,4,12,13-tetrahydro-11H-5,7-(azenometheno)dipyrazolo[3,4-b:5′,1′-g][1]oxa[4,6,8]triazacycloundecine] |
| 16.2 mL/min/kg | – | – | – | – | – | 7.4 % free | 10.2 % free | 1.4 ± 0.2 | 1 ± 0.12 | 906 ± 87 ng/g | 664 ± 47 ng/mL | BQL** | Cc1ccc(-n2nc3c(c2C)Nc2ncc4c(Cl)nn(c4n2)CCCO3)c(C)n1 [Example 9, 8-Chloro-2-(2,6-dimethylpyridin-3-yl)-3-methyl-2,4,12,13-tetrahydro-11H-5,7-(azenometheno)dipyrazolo[3,4-b:5′,1′-g][1]oxa[4,6,8]triazacycloundecine] |

Source: patent US11958865B1, “Leucine-rich repeat kinase 2 (LRRK2) inhibitors” (H. Lundbeck A/S, priority 2022, dated 2024)
